# Measured values as given in patent US20260234115A1, “LIPID COMPOUNDS, COMPOSITIONS, AND USES THEREOF” (Liberate Bio, Inc., priority 2023, published 2026).
# Marks after values point to notes of the source that are not given here.
# Key:
# [1] = Plate-based fluorescence (RiboGreen) assay: nucleic acid cargo content and encapsulation efficiency of LNPs; type: physicochemical; settings: for EE (%) N/P:3 / EE (%) N/P:6: LNP
# How it was run: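 LNPs made by microfluidic mixing of ethanolic lipids with mRNA in pH 4.0 citrate, dialyzed into PBS pH 7.4. Cargo quantified by RiboGreen fluorescence against a standard curve: Triton-lysed samples give total, TE-only samples give free cargo; encapsulation efficiency from their ratio.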
# [2] = Dynamic light scattering: LNP particle size and PDI; type: physicochemical; settings: for PDI N/P:3 / Size (nm) N/P:3 / PDI N/P:6 / Size (nm) N/P:6: LNP
# How it was run: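 The LNPs were made by microfluidic mixing of the lipids in ethanol with mRNA in pH 4.0 citrate, then dialyzed into PBS pH 7.4. They were diluted in PBS pH 7.4, and particle size and PDI were measured by dynamic light scattering.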
# mouse organs = assay: In vivo activity screening in mice: organ mean total flux (p/s) of luciferase activity after injection of F2 LNP pools (Table 6, FIG. 7A-7C); settings: luciferase mRNA
# How it was run: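 C57BL/6J mice given one tail-vein injection of pooled Formulation F2 LNPs carrying firefly luciferase mRNA (0.25-3 mg/kg) in PBS. At 4-6 h, s.c. D-luciferin given; organs imaged ex vivo by IVIS within 10-15 min, after saline cardiac perfusion. Mean total flux (p/s) per organ ROI.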
# [3] = LNP compositions for Formulation F2 Study
# [4] = LNP compositions for in vivo mouse study, four formulations (F1-F4) pooled, or pools of four compounds
# [5] = LNP compositions for in vivo mouse study, four formulations (F1-F4) of the lipid compound pooled, or pools of four compounds (sixteen compositions)
structure (smiles),measurement,setting,value
"CCCCC/C=C\CCOC(=O)CCCCCCC(=O)OCC(COC(=O)CCCCCCC(=O)OCC/C=C\CCCCC)(COC(=O)CCCCCCC(=O)OCC/C=C\CCCCC)COC(=O)CCC(CCCCCC)OC(=O)NCCN1CCCC1 (centres unmarked) [Compound 10, O8-[2,2-bis[[8-[(Z)-non-3-enoxy]-8-oxo-octanoyl]oxymethyl]-3-[4-(2-pyrrolidin-1-ylethylcarbamoyloxy)decanoyloxy]propyl]O1-[(Z)-non-3-enyl]octanedioate]",EE %,[1]; [3],98%
same,EE %,[1]; [4],99%
same,mRNA Content,[1]; [4],101.7 µg/mL
same,EE (%) N/P:3,"[1]; Formulation F1, N/P 3",98%
same,EE (%) N/P:6,"[1]; Formulation F1, N/P 6",100%
same,EE (%) N/P:3,"[1]; Formulation F2, N/P 3",98%
same,EE (%) N/P:6,"[1]; Formulation F2, N/P 6",100%
same,EE (%) N/P:3,"[1]; Formulation F3, N/P 3",96%
same,EE (%) N/P:6,"[1]; Formulation F3, N/P 6",100%
same,EE (%) N/P:3,"[1]; Formulation F4, N/P 3",98%
same,EE (%) N/P:6,"[1]; Formulation F4, N/P 6",100%
same,PDI,[2]; [3],0.139
same,Particle Size (nm),[2]; [3],125.5 nm
same,Particle Size (nm),[2]; [5],91.7 nm
same,PDI,[2]; [4],0.176
same,PDI N/P:3,"[2]; Formulation F1, N/P 3",0.208
same,Size (nm) N/P:3,"[2]; Formulation F1, N/P 3",86 ± 4 nm
same,PDI N/P:6,"[2]; Formulation F1, N/P 6",0.09
same,Size (nm) N/P:6,"[2]; Formulation F1, N/P 6",78 ± 3 nm
same,PDI N/P:3,"[2]; Formulation F2, N/P 3",0.097
same,Size (nm) N/P:3,"[2]; Formulation F2, N/P 3",102 ± 3 nm
same,PDI N/P:6,"[2]; Formulation F2, N/P 6",0.122
same,Size (nm) N/P:6,"[2]; Formulation F2, N/P 6",96 ± 0 nm
same,PDI N/P:3,"[2]; Formulation F3, N/P 3",0.081
same,Size (nm) N/P:3,"[2]; Formulation F3, N/P 3",106 ± 2 nm
same,PDI N/P:6,"[2]; Formulation F3, N/P 6",0.092
same,Size (nm) N/P:6,"[2]; Formulation F3, N/P 6",100 ± 3 nm
same,PDI N/P:3,"[2]; Formulation F4, N/P 3",0.278
same,Size (nm) N/P:3,"[2]; Formulation F4, N/P 3",92 ± 4 nm
same,PDI N/P:6,"[2]; Formulation F4, N/P 6",0.227
same,Size (nm) N/P:6,"[2]; Formulation F4, N/P 6",78 ± 1 nm
same,Organ Mean Total Flux Femur,"mouse organs; Mouse 1, dose 0.3 mg/kg",7.1 p/s (×10^6)
same,Organ Mean Total Flux Heart,"mouse organs; Mouse 1, dose 0.3 mg/kg",4.3 p/s (×10^6)
same,Organ Mean Total Flux Kidney,"mouse organs; Mouse 1, dose 0.3 mg/kg",81.1 p/s (×10^6)
same,Organ Mean Total Flux Liver,"mouse organs; Mouse 1, dose 0.3 mg/kg",12560 p/s (×10^6)
same,Organ Mean Total Flux Lung,"mouse organs; Mouse 1, dose 0.3 mg/kg",41.5 p/s (×10^6)
same,Organ Mean Total Flux Muscle,"mouse organs; Mouse 1, dose 0.3 mg/kg",6.2 p/s (×10^6)
same,Organ Mean Total Flux Pancreas,"mouse organs; Mouse 1, dose 0.3 mg/kg",2.7 p/s (×10^6)
same,Organ Mean Total Flux Spleen,"mouse organs; Mouse 1, dose 0.3 mg/kg",12.3 p/s (×10^6)
same,Organ Mean Total Flux Femur,"mouse organs; Mouse 14, dose 0.5 mg/kg",6.5 p/s (×10^6)
same,Organ Mean Total Flux Heart,"mouse organs; Mouse 14, dose 0.5 mg/kg",2.8 p/s (×10^6)
same,Organ Mean Total Flux Kidney,"mouse organs; Mouse 14, dose 0.5 mg/kg",3.7 p/s (×10^6)
same,Organ Mean Total Flux Liver,"mouse organs; Mouse 14, dose 0.5 mg/kg",1175 p/s (×10^6)
same,Organ Mean Total Flux Lung,"mouse organs; Mouse 14, dose 0.5 mg/kg",16.2 p/s (×10^6)
same,Organ Mean Total Flux Muscle,"mouse organs; Mouse 14, dose 0.5 mg/kg",15.1 p/s (×10^6)
same,Organ Mean Total Flux Pancreas,"mouse organs; Mouse 14, dose 0.5 mg/kg",4.0 p/s (×10^6)
same,Organ Mean Total Flux Spleen,"mouse organs; Mouse 14, dose 0.5 mg/kg",10.2 p/s (×10^6)
"CCCCC/C=C\CCOC(=O)CCCCCCC(=O)OCC(COC(=O)CCCCCCC(=O)OCC/C=C\CCCCC)(COC(=O)CCC(CCCCCC)OC(=O)NCCN1CCCC1)COC(=O)CC12CC3CC(CC(C3)C1)C2 (centres unmarked) [Compound 11, O8-[2-[[2-(1-adamantyl)acetyl]oxymethyl]-2-[[8-[(Z)-non-3-enoxy]-8-oxo-octanoyl]oxymethyl]-3-[4-(2-pyrrolidin-1-ylethylcarbamoyloxy)decanoyloxy]propyl]O1-[(Z)-non-3-enyl]octanedioate]",EE %,[1]; [4],97%
same,mRNA Content,[1]; [4],105 µg/mL
same,EE (%) N/P:6,"[1]; Formulation F1, N/P 6",100%
same,EE (%) N/P:6,"[1]; Formulation F2, N/P 6",100%
same,EE (%) N/P:6,"[1]; Formulation F3, N/P 6",97%
same,EE (%) N/P:6,"[1]; Formulation F4, N/P 6",99%
same,Particle Size (nm),[2]; [5],86 nm
same,PDI,[2]; [4],0.13
same,PDI N/P:6,"[2]; Formulation F1, N/P 6",0.16
same,Size (nm) N/P:6,"[2]; Formulation F1, N/P 6",77 ± 7 nm
same,PDI N/P:6,"[2]; Formulation F2, N/P 6",0.11
same,Size (nm) N/P:6,"[2]; Formulation F2, N/P 6",88 ± 3 nm
same,PDI N/P:6,"[2]; Formulation F3, N/P 6",0.14
same,Size (nm) N/P:6,"[2]; Formulation F3, N/P 6",91 ± 1 nm
same,PDI N/P:6,"[2]; Formulation F4, N/P 6",0.30
same,Size (nm) N/P:6,"[2]; Formulation F4, N/P 6",74 ± 2 nm
same,Organ Mean Total Flux Femur,"mouse organs; Mouse 1, dose 0.3 mg/kg",5.3 p/s (×10^6)
same,Organ Mean Total Flux Heart,"mouse organs; Mouse 1, dose 0.3 mg/kg",2.3 p/s (×10^6)
same,Organ Mean Total Flux Kidney,"mouse organs; Mouse 1, dose 0.3 mg/kg",2.4 p/s (×10^6)
same,Organ Mean Total Flux Liver,"mouse organs; Mouse 1, dose 0.3 mg/kg",5140 p/s (×10^6)
same,Organ Mean Total Flux Lung,"mouse organs; Mouse 1, dose 0.3 mg/kg",27.7 p/s (×10^6)
same,Organ Mean Total Flux Muscle,"mouse organs; Mouse 1, dose 0.3 mg/kg",21.8 p/s (×10^6)
same,Organ Mean Total Flux Pancreas,"mouse organs; Mouse 1, dose 0.3 mg/kg",6.0 p/s (×10^6)
same,Organ Mean Total Flux Spleen,"mouse organs; Mouse 1, dose 0.3 mg/kg",32.3 p/s (×10^6)
"CCCCC/C=C\CCOC(=O)CCCCCCC(=O)OCC(COC(=O)CCCCCCC(=O)OCC/C=C\CCCCC)(COC(=O)CCC(CCCCCC)OC(=O)NCCN1CCCC1)COC(=O)CCC(OCCCCCCCC)OCCCCCCCC (centres unmarked) [Compound 12, O8-[2-(4,4-dioctoxybutanoyloxymethyl)-2-[[8-[(Z)-non-3-enoxy]-8-oxo-octanoyl]oxymethyl]-3-[4-(2-pyrrolidin-1-ylethylcarbamoyloxy)decanoyloxy]propyl]O1-[(Z)-non-3-enyl]octanedioate]",EE %,[1]; [4],97%
same,mRNA Content,[1]; [4],91 µg/mL
same,EE (%) N/P:6,"[1]; Formulation F1, N/P 6",98%
same,EE (%) N/P:6,"[1]; Formulation F2, N/P 6",98%
same,EE (%) N/P:6,"[1]; Formulation F3, N/P 6",97%
same,EE (%) N/P:6,"[1]; Formulation F4, N/P 6",98%
same,Particle Size (nm),[2]; [5],83.7 nm
same,PDI,[2]; [4],0.119
same,PDI N/P:6,"[2]; Formulation F1, N/P 6",0.16
same,Size (nm) N/P:6,"[2]; Formulation F1, N/P 6",81 ± 9 nm
same,PDI N/P:6,"[2]; Formulation F2, N/P 6",0.07
same,Size (nm) N/P:6,"[2]; Formulation F2, N/P 6",84 ± 5 nm
same,PDI N/P:6,"[2]; Formulation F3, N/P 6",0.04
same,Size (nm) N/P:6,"[2]; Formulation F3, N/P 6",93 ± 1 nm
same,PDI N/P:6,"[2]; Formulation F4, N/P 6",0.09
same,Size (nm) N/P:6,"[2]; Formulation F4, N/P 6",63 ± 0 nm
same,Organ Mean Total Flux Femur,"mouse organs; Mouse 1, dose 0.3 mg/kg",1.3 p/s (×10^6)
same,Organ Mean Total Flux Heart,"mouse organs; Mouse 1, dose 0.3 mg/kg",0.1 p/s (×10^6)
same,Organ Mean Total Flux Kidney,"mouse organs; Mouse 1, dose 0.3 mg/kg",0.2 p/s (×10^6)
same,Organ Mean Total Flux Liver,"mouse organs; Mouse 1, dose 0.3 mg/kg",61.8 p/s (×10^6)
same,Organ Mean Total Flux Lung,"mouse organs; Mouse 1, dose 0.3 mg/kg",0.7 p/s (×10^6)
same,Organ Mean Total Flux Muscle,"mouse organs; Mouse 1, dose 0.3 mg/kg",2.7 p/s (×10^6)
same,Organ Mean Total Flux Pancreas,"mouse organs; Mouse 1, dose 0.3 mg/kg",0.2 p/s (×10^6)
same,Organ Mean Total Flux Spleen,"mouse organs; Mouse 1, dose 0.3 mg/kg",0.7 p/s (×10^6)
